Data set [1] has as its target CYP3A4 (Homo sapiens, UniProt P08684). The data set is described as follows: Inhibition of CYP3A4 (midazolam 1-hydroxylation) by CK in HLMs. Also on record: tissue Cypex Ltd. (U.K.); host or cells: pooled human liver microsomes. Format: in vitro ADME. Here is the method: The method was conducted according to our previous study with some modifications. The CYP isoform-specific probe reactions used were phenacetin O-deethylation (for CYP1A2), coumarin 7-hydroxylation (for CYP2A6), tolbutamide 4-hydroxylation (for CYP2C9), metoprolol α-hydroxylation (for CYP2D6), chlorzoxazone 6-hydroxylation (for CYP2E1),S-Mephenytoin 4-hydroxylation (for CYP2C19), and midazolam 1-hydroxylation (for CYP3A4). The kinetic study of CK was conducted with HLMs. A 0.2 mL incubation mixture that consisted of CK (as a substrate), the HLMs (0.5 mg/mL) or CYP isoforms (10 pmol), and 0.1 M sodium phosphate buffer (pH 7.4) was pre-warmed for 5 min at 37°C. The reaction was initiated by the addition of 1 mg/mL triphosphopyridine nucleotide (NADPH). All the reagents were dissolved in methanol, and the final solvent concentration in all incubations (including the controls) was 1%. The final incubations were performed in a shaking water bath (37°C) for 30 min. The reactions were stopped by adding 0.2 mL ice-cold acetonitrile, which contains irbesartan (114.9 ng/mL) as the internal standard. The samples were vortexed for 5 min. After centrifugation (12000×g for 10 min), the supernatants were transferred, and aliquots of 20 μL were injected into the HPLC-MS/MS system for analysis.
CK (10–100 μM) and a single CYP isoform-specific substrate (with a concentration similar to its corresponding Kmvalue) were used to determine the inhibitory effect of CK on specific CYP isoforms as described in detail previously. Substrates including phenacetin, coumarin, tolbutamide, metoprolol, chlorzoxazone, S-Mephenytoin, and midazolam were used at concentrations of 10, 5, 100, 7.5, 40, 100, and 5 μM, respectively. All incubation conditions were the same as mentioned above. The inhibitory effects on the CYP isoforms were investigated individually by incubating the HLMs in the absence or presence of CK. The incubation solution with the solvent that was used to dissolve CK was regarded as the negative control, and the solutions containing the specific inhibitors mentioned above were considered the positive controls.
The inhibition data obtained from the pilot experiments were used as a guide to generate the appropriate probe substrate and test inhibitor concentrations for the determination of the Ki values for each CYP isoform. The isoform-specific probe substrate concentrations used were 25–200 μM tolbutamide for CYP2C9 and 5–50 μM midazolam for CYP3A4. The CK concentrations used were 10–100 μM.
When Ki>Ki’, the intersection was above the [I] axis in the plot of S/V against [I] and below it in the Dixon plot; the opposite was true if Ki<Ki’. In the special case where Ki = Ki’ (simple non-competitive inhibition), the intersections occurred on the [I] axis in both plots. The asymptotic cases of competitive and uncompetitive inhibition can be generated by inserting the conditions Ki’ to ∞ for competitive inhibition, or Ki to ∞ for uncompetitive inhibition.
As described in detail previously, to determine the major enzymes responsible for the CK metabolism in HLMs, the metabolic clearance rate of the incubation solution without any specific inhibitor for CK was considered as 100%. The effects of the specific inhibitors on the metabolic clearance rate of CK were evaluated with SPSS one-way analysis of variance (SPSS Inc., Chicago, IL, USA). P<0.05 was considered significant in all cases. The apparent kinetic parameters of CK (Km and Vmax) were determined by fitting the Michaelis–Menten equation using the GraphPad Prism Enzyme Kinetic 5 Demo software (GraphPad Co. Ltd, San Diego, CA, USA).

Data set [2] concerns the target CYP2C9 (Homo sapiens, UniProt P11712). The data set is described as follows: Metabolic clearance rate of CK with recombinant CYP2C9 under sulfaphenazole. Particulars: recombinant CYP2C9, CK 50 μM, sulfaphenazole 1 μM. Format: in vitro ADME. Also on record: purchased Cypex Ltd. (U.K.). On the procedure: The method was conducted according to our previous study with some modifications. The CYP isoform-specific probe reactions used were phenacetin O-deethylation (for CYP1A2), coumarin 7-hydroxylation (for CYP2A6), tolbutamide 4-hydroxylation (for CYP2C9), metoprolol α-hydroxylation (for CYP2D6), chlorzoxazone 6-hydroxylation (for CYP2E1),S-Mephenytoin 4-hydroxylation (for CYP2C19), and midazolam 1-hydroxylation (for CYP3A4). The kinetic study of CK was conducted with HLMs. A 0.2 mL incubation mixture that consisted of CK (as a substrate), the HLMs (0.5 mg/mL) or CYP isoforms (10 pmol), and 0.1 M sodium phosphate buffer (pH 7.4) was pre-warmed for 5 min at 37°C. The reaction was initiated by the addition of 1 mg/mL triphosphopyridine nucleotide (NADPH). […]
To screen the specific CYP isoform responsible for the CK metabolism, we determined the inhibitory effect of specific inhibitors on the metabolism of CK in the HLMs as described in detail previously. […] The inhibitory effects of the above specific inhibitors on the metabolic clearance rate of CK were evaluated separately to screen the CYP isoforms responsible for the CK metabolism. The relative activity of the CYP isoforms was calculated by dividing the peak area of CK when incubated with the inhibitor by that of CK from the negative controls. […]

Where [3] appears, read: CYP3A4 in HLMs, ketoconazole values ref 17.

The pIC50 is the negative decadic logarithm of the IC50, by convention in mol/L. What is called pKi is the negative decadic logarithm of the Ki, by convention in mol/L. Low values mean a high Ki, high ones a low Ki.

pIC50, pKi: −log10 of the molar value.

Sequence of CYP3A4 (P08684 whole entry, canonical isoform): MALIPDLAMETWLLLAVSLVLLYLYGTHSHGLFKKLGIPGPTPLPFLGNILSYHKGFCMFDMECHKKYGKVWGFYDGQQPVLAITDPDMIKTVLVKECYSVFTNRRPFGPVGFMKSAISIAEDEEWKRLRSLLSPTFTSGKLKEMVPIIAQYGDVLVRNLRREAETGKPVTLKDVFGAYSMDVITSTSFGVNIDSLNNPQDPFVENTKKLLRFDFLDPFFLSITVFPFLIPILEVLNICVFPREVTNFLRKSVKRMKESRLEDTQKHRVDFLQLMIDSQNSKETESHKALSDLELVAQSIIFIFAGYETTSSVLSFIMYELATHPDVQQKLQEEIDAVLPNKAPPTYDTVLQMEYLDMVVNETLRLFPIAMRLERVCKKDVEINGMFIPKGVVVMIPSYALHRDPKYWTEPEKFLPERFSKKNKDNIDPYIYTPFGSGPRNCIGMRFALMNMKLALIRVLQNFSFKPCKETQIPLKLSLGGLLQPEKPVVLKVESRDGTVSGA
Sequence of CYP2C9 (P11712 whole entry, canonical isoform): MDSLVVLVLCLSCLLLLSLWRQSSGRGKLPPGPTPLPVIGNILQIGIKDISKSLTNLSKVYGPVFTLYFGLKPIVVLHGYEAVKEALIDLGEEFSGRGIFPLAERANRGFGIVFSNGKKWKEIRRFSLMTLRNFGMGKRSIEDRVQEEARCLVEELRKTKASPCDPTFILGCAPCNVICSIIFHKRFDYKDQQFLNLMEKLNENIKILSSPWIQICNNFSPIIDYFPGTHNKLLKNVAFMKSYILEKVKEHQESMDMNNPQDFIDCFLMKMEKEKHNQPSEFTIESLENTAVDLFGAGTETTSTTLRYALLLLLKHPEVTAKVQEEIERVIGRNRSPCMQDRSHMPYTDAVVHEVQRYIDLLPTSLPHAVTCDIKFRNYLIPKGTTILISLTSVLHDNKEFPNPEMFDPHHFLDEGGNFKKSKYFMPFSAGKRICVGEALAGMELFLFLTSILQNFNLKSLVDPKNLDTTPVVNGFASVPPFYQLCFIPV

On to `CC(C)=CCC[C@](C)(OC1O[C@H](CO)[C@@H](O)[C@H](O)[C@H]1O)[C@H]1CC[C@]2(C)[C@@H]1[C@H](O)C[C@@H]1[C@@]3(C)CC[C@H](O)C(C)(C)[C@@H]3CC[C@]12C` (stereo partly drawn) [CK, 20-O-β-(D-glucopyranosyl)-20(S)-protopanaxadiol], for which, in data set [1] (setting [3]), the “IC50 of CK higher than that of ketoconazole” value is on record as 41-123 fold and the “Ki of CK higher than that of ketoconazole” value was determined as 761 fold. Besides, the “type of inhibition of CYP3A4” value in data set [1] (HLMs, Dixon and S/V versus [I] plots) is given as “noncompetitive”. The negative-log IC50 (pIC50) in data set [1] (HLMs, midazolam 1-hydroxylation, midazolam 5 μM, CK 10–100 μM) was 5.01. In addition, the negative-log Ki (pKi) in data set [1] (HLMs, midazolam 5–50 μM, secondary plot of Lineweaver–Burk slopes) was 4.94. Moreover, the “inhibitor potency class for CYP3A4” value in data set [1] (classified by IC50 according to Kong et al) is given as “potent (potent, if IC50≤ 20 μg/mL or ≤10 μM)”. Further, the “MCR of CK, of that of the control” value in data set [2] is recorded as 22.0%.
